Here are results for two molecules from patent EP0572494B1, “COMPOSITION FOR USE IN TRANSDERMAL ADMINISTRATION” (priority 1991, dated 1992).

The nature of data set [1]: Particle size distribution by microscopic examination. The class given is physicochemical. How it is done:
For the purposes of this specification the particle size of the particles was determined by microscopic examination. It should be assumed that the particles are of a constant thickness. The surface area of each visible particle face should be determined, and the particle size calculated by calculating the square root of the visible surface area of each particle.
The particle size of the ibuprofen crystallites precipitated during the cooling and stirring of the above formulation was compared with that of the unreacted ibuprofen powder. The respective particle sizes were determined by microscopic examination. It was assumed that the crystals were of a constant thickness. The surface area of each crystal was then determined, and the particle size calculated by calculating the square root of the measured surface area. This value was then taken to be the length of side. The total area of the counted particles was measured and the sum of the areas of the different size ranges estimated as a percentage of the total. The results were: Table 1
The particle size of the crystals were determined by microscopic examination. It was assumed that the crystals were of a constant thickness. The surface area of each crystal was then determined, and the particle size calculated by calculating the square root of the measured surface area. This value was then taken to be the length of side. The total area of the counted particles was measured and the sum of the areas of the different size ranges estimated as a percentage of the total. The results were: Table 1

Data set [2] is described as follows: Urinary ibuprofen after topical application to shaved dorsal skin. Format: in vivo, Hooded Wistar rats. Conditions: topically applied composition according to the invention. The text has this:
Four anesthetized Hooded Wistar rats were fitted with jugular and bladder catheters. […] Plastic covers were placed over the shaved area to prevent the animals ingesting the applied composition.
The animals were placed in metabolism cages and the urinary ibuprofin monitored.

For data set [3] the following is noted: according to Gruber et al; cited from earlier work.

For `O=C1O[C@H]([C@@H](O)CO)C(O)=C1O` [Unformulated Ascorbic Acid, ascorbic acid], the “Percentage Particles in Size range” value in data set [1] (size range 10-20µm) worked out at 0.36 Percentage; in data set [1] (size range 20-50µm), 0.57 Percentage; in data set [1] (size range 50-100µm), 2.7 Percentage; in data set [1] (size range >100µm), 96 Percentage.
With `CC(C)Cc1ccc(C(C)C(=O)O)cc1` (stereo not shown) [ibuprofen], in data set [2], the absorption kinetics entry is on record as “zero order kinetics” and the “time still being excreted after topical application” value is “more than 160 hours”. In data set [3], the “solubility in water and conventional media” value is “only sparingly soluble”.
